Tests used:
JAK2 = molecular target: T1, JAK2 (Homo sapiens, UniProt O60674); assay: JAK2 Ki determination assay (kinase tracer binding); conditions: kinase tracer 236 binding; read-out: Ki against JAK2
T1 construct: Recombinant human JAK2 catalytic domain (amino acids 808-1132; catalog number PV4210) was purchased from Invitrogen; purchased Invitrogen PV4210
Method: JAK2 (Invitrogen, PV4210) was used at a final concentration of 5 nM. The binding experiment was performed in 50 mM Hepes pH 7.5, 0.01% Brij-35, 10 mM MgCl2, 1 mM EGTA using 25 nM kinase tracer 236 (Invitrogen, PV5592) and 2 nM Eu-anti-GST (Invitrogen, PV5594) with varying compound concentrations. Detection of tracer was performed according to the manufacturer's procedure.

rat CIA model = assay: Rat collagen induced arthritis (CIA) model; assay type: in vivo; conditions: p.o., therapeutic dosing day 16 to day 30
Method: Completed Freund's adjuvant (CFA) and incomplete Freund's adjuvant (IFA) were purchased from Difco. Bovine collagen type II (CII), lipopolysaccharide (LPS), and Enbrel was obtained from Chondrex (Isle d'Abeau, France); Sigma (P4252, L'Isle d'Abeau, France), Whyett (25 mg injectable syringe, France) Acros Organics (Palo Alto, Calif.), respectively. All other reagents used were of reagent grade and all solvents were of analytical grade.
Dark Agouti rats (male, 7-8 weeks old) were obtained from Harlan Laboratories (Maison-Alfort, France). Rats were kept on a 12 h light/dark cycle (0700-1900). Temperature was maintained at 22° C., and food and water were provided ad libitum.
One day before the experiment, CII solution (2 mg/mL) was prepared with 0.05 M acetic acid and stored at 4° C. Just before the immunization, equal volumes of adjuvant (IFA) and CII were mixed by a homogenizer in a pre-cooled glass bottle in an ice water bath. Extra adjuvant and prolonged homogenization may be required if an emulsion is not formed. […]
Arthritis is scored according to the method of Khachigian 2006, Lin et al 2007 and Nishida et al. 2004). […]
The area under the curve (AUC) from day 1 to day 14 was calculated for each individual rat. The AUC of each animal was divided by the average AUC obtained for the vehicle in the study from which the data on that animal was obtained and multiplied by 100 (i.e. the AUC was expressed as a percentage of the average vehicle AUC per study).
The clinical score difference for each animal was divided by the average clinical score difference obtained for the vehicle in the study from which the data on that animal was obtained and multiplied by 100 (i.e. the difference was expressed as a percentage of the average clinical score difference for the vehicle per study).
Clinically, body weight loss is associated with arthritis (Shelton et al., 2005; Rall, 2004; Walsmith et al., 2004). […] The change in body weight (%) after onset of arthritis was calculated as follows: […]

T1 sequence (O60674 808-1132): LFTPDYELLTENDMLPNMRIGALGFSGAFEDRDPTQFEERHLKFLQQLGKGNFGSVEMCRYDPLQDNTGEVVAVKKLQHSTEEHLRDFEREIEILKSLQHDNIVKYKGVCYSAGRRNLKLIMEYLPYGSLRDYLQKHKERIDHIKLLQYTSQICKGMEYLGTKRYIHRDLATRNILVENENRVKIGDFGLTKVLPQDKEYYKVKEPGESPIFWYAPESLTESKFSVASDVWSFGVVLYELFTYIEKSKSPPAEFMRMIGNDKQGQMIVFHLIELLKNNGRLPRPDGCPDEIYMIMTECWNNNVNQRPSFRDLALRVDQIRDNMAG

CCc1cc(C2=CCN(C(=O)CC#N)CC2)ccc1N(C)c1cc2c(cn1)ncn2C [Compound 1]
Ki (JAK2): 25.1 nM | efficacy in rat CIA model (rat CIA model; 1 mg/kg): statistically significant efficacy | efficacy in rat CIA model (rat CIA model; 3 mg/kg): statistically significant efficacy | efficacy in rat CIA model (rat CIA model; 10 mg/kg): statistically significant efficacy

From patent US20130217722A1, “NOVEL COMPOUND USEFUL FOR THE TREATMENT OF DEGENERATIVE AND INFLAMMATORY DISEASES” (priority 2012, published 2013)
